In brackets after ≈: the same amount, converted by molar mass. Where two headings read alike, the source gives them in different places.
Legend:
[1] = Solubility experiment of TH-302 (saturated solution method, HPLC); assay type: physicochemical; details: thermodynamic from solid
Procedure: The solubility is measured in an experiment by the saturated solution method; that is, the solid TH-302 was directly charged into the solvent until insoluble matter or turbidity appears. After clarification for a period of time, the solution was directly filtered. The clarified filtrate was taken directly for determination of the concentration of TH-302. The resulting concentration is exactly the solubility of TH-302 in this solvent system. Please refer to Tables 1, 2, and 3 for specific solubility data.
For the method for measuring the concentration of TH-302 (mg/ml), please refer to the HPLC method described in the patent WO2008083101A1 owned by Threshold Pharmaceuticals Inc. (see Example 2. An Ethanol Formulation of TH302, for details); and the external standard method was used for quantification.

[2] = Saturated solubility of the drug in D5W solution under strong shaking; assay type: physicochemical; details: 5% glucose solution (D5W), saline or isotonic, thermodynamic from solid, shaken 2 minutes, filtered, room temperature 24 hours
Procedure: The TH-302 sample was weighed accurately in an amount of about 60 mg, placed in a transparent vial, and added with 6 mL of 5% glucose solution (D5W). The resulting solution was shaken vigorously for 2 minutes to obtain a solubility- stock solution. It was observed that the solubility-stock solution contained insoluble substances. Thus, the solubility- stock solution was filtered and then became clear. […] This value was exactly the saturated solubility of the drug in D5W solution.

[3] = Freeze-thaw cycle stability of freeze-dried formulations; assay type: physicochemical; details: TH-302 active pharmaceutical ingredient used for the two batches
Procedure: The freeze-thaw test was to place the sample in the dark at (-20°C±5°C) for 2 days, and at (25°C±5°C) for another 2 days, as a cycle. The HPLC purity of TH-302 in the freeze-dried samples was determined. Table 32: HPLC purity test data of TH-302 active pharmaceutical ingredient, two batches of prepared freeze-dried formulations, and the freeze-dried formulations after three freeze-thaw cycles (%)

[4] = concentrated injection with ethanol, dimethlyacetamide, polysorbate 80; mainly induced by dimethlyacetamide; WO2015013448A1; cited from earlier work

## Cn1c(COP(=O)(NCCBr)NCCBr)cnc1[N+](=O)[O-] [TH-302]
[1]; 1% N,N-dimethylacetamide aqueous solution (volume), water, 1%N,N-dimethlyacetamide aqueous solution (volume), read-out: Solubility
  solubility: 8050 µg/mL (≈ 17.9 mM)
[1]; 1% ethanol aqueous solution (volume), water, read-out: Solubility
  solubility: 6580 µg/mL (≈ 14.7 mM)
[1]; 1% polyethylene glycol aqueous solution (volume), water, read-out: Solubility
  solubility: 6810 µg/mL (≈ 15.2 mM)
[1]; 20% ethanol aqueous solution (volume), aqueous with cosolvent or surfactant or cyclodextrin, read-out: Solubility
  solubility: 8400 µg/mL (≈ 18.7 mM)
[1]; aqueous with cosolvent or surfactant or cyclodextrin, 1%Tween 80 aqueous solution (volume), read-out: Solubility
  solubility: 7210 µg/mL (≈ 16.1 mM)
[1]; aqueous with cosolvent or surfactant or cyclodextrin, 20% tert-butanol aqueous solution, volume ratio, commercial TH-302, read-out: Solubility
  solubility: 10000 µg/mL
[1]; aqueous with cosolvent or surfactant or cyclodextrin, 30% tert-butanol in water, mass ratio, TH-302 synthesized by the applicants, read-out: Solubility
  solubility: 42000 µg/mL
[1]; aqueous with cosolvent or surfactant or cyclodextrin, 40% tert-butanol aqueous solution, volume ratio, commercial TH-302, read-out: Solubility
  solubility: > 40000 µg/mL
[1]; organic solvent or mixture, 60% tert-butanol in water, mass ratio, TH-302 synthesized by the applicants, read-out: Solubility
  solubility: 146000 µg/mL
[1]; organic solvent or mixture, 70% tert-butanol in water, mass ratio, TH-302 synthesized by the applicants, read-out: Solubility
  solubility: 165000 µg/mL
[1]; organic solvent or mixture, 75% tert-butanol in water, mass ratio, TH-302 synthesized by the applicants, read-out: Solubility
  solubility: 151000 µg/mL
[1]; organic solvent or mixture, 80% tert-butanol aqueous solution, volume ratio, commercial TH-302, read-out: Solubility
  solubility: 88500 µg/mL
[1]; organic solvent or mixture, 80% tert-butanol in water, mass ratio, TH-302 synthesized by the applicants, read-out: Solubility
  solubility: 143000 µg/mL
[1]; organic solvent or mixture, 90% tert-butanol aqueous solution, volume ratio, commercial TH-302, read-out: Solubility
  solubility: 76400 µg/mL
[1]; organic solvent or mixture, 90% tert-butanol in water, mass ratio, TH-302 synthesized by the applicants, read-out: Solubility
  solubility: 66600 µg/mL
[1]; organic solvent or mixture, 90% tert-butanol/10% ethanol, volume ratio, commercial TH-302, read-out: Solubility
  solubility: 10700 µg/mL
[1]; organic solvent or mixture, 95% tert-butanol aqueous solution, volume ratio, commercial TH-302, read-out: Solubility
  solubility: 32300 µg/mL
[1]; organic solvent or mixture, 95% tert-butanol in water, mass ratio, TH-302 synthesized by the applicants, read-out: Solubility
  solubility: 36800 µg/mL
[1]; organic solvent or mixture, 95% tert-butanol/5% ethanol, volume ratio, commercial TH-302, read-out: Solubility
  solubility: 9980 µg/mL
[1]; organic solvent or mixture, 100% tert-butanol, TH-302 synthesized by the applicants, read-out: Solubility
  solubility: 11800 µg/mL (≈ 26.2 mM)
[1]; organic solvent or mixture, tert-butanol, commercial TH-302, read-out: Solubility
  solubility: 8980 µg/mL (≈ 20 mM)
[1]; pH 2, simulated gastric fluid, pH2, HCl solution, read-out: Solubility
  solubility: 6940 µg/mL (≈ 15.5 mM)
[1]; pH 4, aqueous buffer, pH4, phthalate buffer solution, read-out: Solubility
  solubility: 7220 µg/mL (≈ 16.1 mM)
[1]; pH 6, aqueous buffer, pH6, phosphate buffer solution, read-out: Solubility
  solubility: 5810 µg/mL (≈ 12.9 mM)
[1]; pH 7, aqueous buffer, pH7, phosphate buffer solution, read-out: Solubility
  solubility: 5870 µg/mL (≈ 13.1 mM)
[1]; pH 8, aqueous buffer, pH8, phosphate buffer solution, read-out: Solubility
  solubility: 5940 µg/mL (≈ 13.2 mM)
[1]; pH 10, aqueous buffer, pH10, borate buffer solution, read-out: Solubility
  solubility: 6070 µg/mL (≈ 13.5 mM)
[1]; tert-butanol-water mixed solvent, aqueous with cosolvent or surfactant or cyclodextrin, summary statement, maximum reached, read-out: solubility in the tert-butanol-water mixed solvent system
  solubility: ≥ 160000 µg/mL
[2]
  solubility at 2 min: 7250 µg/mL (≈ 16.1 mM)
[3]
  HPLC purity: 95.87%
[4]
  TH-302 administration reactions: lip swelling and urticaria
